The test concerns Human Platelet Rich Plasma. The test is described as follows: ADP induced Aggregation of Human Platelet Rich Plasma. In kind it is cell-based. Conditions: 37° C., half-maximal inhibition, read-out: Human Platelet Agg IC50. As for the experimental part:
Healthy aspirin free donors were randomly selected from a pool of volunteers. The harvesting of platelet rich plasma and subsequent ADP induced platelet aggregation assays were performed as described in Zucker, M. B., "Platelet Aggregation Measured by the Photometric Method", Methods in Enzymology 169(1989):117-133. Standard venipuncture techniques using a butterfly allowed the withdrawal of 45 mL of whole blood into a 60 mL syringe containing 5 mL of 3.8% trisodium citrate. Following thorough mixing in the syringe, the anti-coagulated whole blood was transferred to a 50 mL conical polyethylene tube. The blood was centrifuged at room temperature for 12 minutes at 200 xg to sediment non-platelet cells. Platelet rich plasma was removed to a polyethylene tube and stored at room temperature until used. Platelet poor plasma was obtained from a second centrifugation of the remaining blood at 2000 xg for 15 minutes. Platelet counts are typically 300,000 to 500,000 per microliter. Platelet rich plasma (0.45 mL) was aliquoted into siliconized cuvettes and stirred (1100 rpm) at 37° C. for 1 minute prior to adding 50 uL of pre-diluted test compound. […] Aggregation was recorded for 3 minutes in a Payton dual channel aggregometer (Payton Scientific, Buffalo, N.Y.). […] All compounds were tested in duplicate and half-maximal inhibition (IC50) was calculated graphically from the dose response curve.

Structures can show the parent of a compound that is named as a salt.

What is called IC50 is the midpoint of a concentration-inhibition curve. As to `N=C(N)NCCCC(=O)NCCC(=O)NC(CC(=O)O)c1cccnc1` (racemic) [Example 5, (±) β-[[3-[[4-[(aminoiminomethyl)amino]-1-oxobutyl]amino]-1-oxopropyl]amino]-3-pyridinepropanoic acid, bistrifluoroacetate salt], the IC50 is 200 µM.
`N=C(N)NCCCCC(=O)NCC(=O)NC(CC(=O)O)c1cccnc1` (stereo not drawn) [Example 1, β-[[2-[[5-[(aminoiminomethyl)amino]-1-oxopentyl]amino]-1-oxoethyl]amino]-3-pyridinepropanoic acid, bistrifluoroacetate salt]: the IC50 was 20 µM.

Values taken from patent US5798370A, “Platelet aggregation inhibitors” (G. D. Searle & Co., priority 1996, dated 1998).
